In patent US9694011B2, “Substituted pyrazolopyrimidines as kinases inhibitors” (JIANGSU MEDOLUTION LTD, priority 2013, dated 2017) one finds IC50 and Kd data, which are given here for three compounds.

For orientation: IC50 means the concentration at which inhibition is half-maximal. High values mean weaker potency, low ones greater potency. What is called Kd is the equilibrium constant for the complex coming apart. The low end stands for a tighter complex, the high end for a looser complex.

Experiment [1] concerns cancer cell line NCI-H1975. In words: NCI-H1975 cell proliferation assay (MTT). Format: cell-based. The note with it: Homo sapiens, NCI-H1975 cells, 72 hours treatment. On the procedure: A representative number of compounds were assayed against cancer cell line NCI-H1975 using the cell proliferation assay:
1. 5×10^3 cells per well in 100 μl of medium were seeded in 96-well plate, here the medium contained 5% FBS
2. 24 hours later, 100 μl fresh medium was added with various concentrations of compounds into each well, while the medium here was free of FBS
3. After the cells were treated with compounds for 72 hours, 20 μl MTT (5 mg/ml) was added into each well, and then the assay plate was incubated at 37° C. for 4 more hours.
4. The assay plate was centrifuged at 800 g for 10 min. The medium was aspirated, 150 μl DMSO was added into each well. The plate was gently shaked for 10 min.
5. The absorbance at 570 nm was measured on the plate reader.

The next experiment concerns the target EGFR (L858R,T790M) (Homo sapiens (Human), UniProt P00533, L858R/T790M). As to the kind of experiment: in vitro kinase binding assay (Kd, phage-tagged kinase, qPCR). On the procedure:
(§1) An in vitro assay which determines the ability of a test compound to inhibit EGFR (L858R), EGFR (L858R,T790M) and BTK kinases.
(§2) Kinase-tagged T7 phage strains were prepared in an E. coli host derived from the BL21 strain. E. coli were grown to log-phase and infected with T7 phage and incubated with shaking at 32° C. until lysis. The lysates were centrifuged and filtered to remove cell debris. The remaining kinases were produced in HEK-293 cells and subsequently tagged with DNA for qPCR detection. Streptavidin-coated magnetic beads were treated with biotinylated small molecule ligands for 30 minutes at room temperature to generate affinity resins for kinase assays. The liganded beads were blocked with excess biotin and washed with blocking buffer (SeaBlock (Pierce), 1% BSA, 0.05% Tween 20, 1 mM DTT) to remove unbound ligand and to reduce non-specific binding. Binding reactions were assembled by combining kinases, liganded affinity beads, and test compounds in 1× binding buffer (20% SeaBlock, 0.17×PBS, 0.05% Tween 20, 6 mM DTT). All reactions were performed in polystyrene 96-well plates in a final volume of 0.135 ml. The assay plates were incubated at room temperature with shaking for 1 hour and the affinity beads were washed with wash buffer (1×PBS, 0.05% Tween 20). The beads were then re-suspended in elution buffer (lx PBS, 0.05% Tween 20, 0.5 μM non-biotinylated affinity ligand) and incubated at room temperature with shaking for 30 minutes. The kinase concentration in the eluates was measured by qPCR.
(§3) An 11-point 3-fold serial dilution of each test compound was prepared in 100% DMSO at 100× final test concentration and subsequently diluted to 1× in the assay (final DMSO concentration=1%). Kds were determined using a compound top concentration=10,000 nM. If the initial Kd determined was <0.5 nM (the lowest concentration tested), the measurement was repeated with a serial dilution starting at a lower top concentration.
(§4) Binding constants (Kds) were calculated with a standard dose-response curve using the Hill equation: Response=Background+(Signal−Background)/(1+(Kd^Hill Slope/Dose^Hill Slope)). The Hill Slope was set to −1. Curves were fitted using a non-linear least square fit with the Levenberg-Marquardt algorithm.

For another experiment, the target named is BTK (Homo sapiens (Human), UniProt Q06187). Described as above. On the procedure: as §1, §2, §3, §4
The next experiment addresses EGFR (L858R) (Homo sapiens (Human), UniProt P00533, L858R). Described as above. On the procedure:
as §1, §2, §3, §4

Chain of EGFR (L858R,T790M) (P00533 25-1210 T790M/L858R): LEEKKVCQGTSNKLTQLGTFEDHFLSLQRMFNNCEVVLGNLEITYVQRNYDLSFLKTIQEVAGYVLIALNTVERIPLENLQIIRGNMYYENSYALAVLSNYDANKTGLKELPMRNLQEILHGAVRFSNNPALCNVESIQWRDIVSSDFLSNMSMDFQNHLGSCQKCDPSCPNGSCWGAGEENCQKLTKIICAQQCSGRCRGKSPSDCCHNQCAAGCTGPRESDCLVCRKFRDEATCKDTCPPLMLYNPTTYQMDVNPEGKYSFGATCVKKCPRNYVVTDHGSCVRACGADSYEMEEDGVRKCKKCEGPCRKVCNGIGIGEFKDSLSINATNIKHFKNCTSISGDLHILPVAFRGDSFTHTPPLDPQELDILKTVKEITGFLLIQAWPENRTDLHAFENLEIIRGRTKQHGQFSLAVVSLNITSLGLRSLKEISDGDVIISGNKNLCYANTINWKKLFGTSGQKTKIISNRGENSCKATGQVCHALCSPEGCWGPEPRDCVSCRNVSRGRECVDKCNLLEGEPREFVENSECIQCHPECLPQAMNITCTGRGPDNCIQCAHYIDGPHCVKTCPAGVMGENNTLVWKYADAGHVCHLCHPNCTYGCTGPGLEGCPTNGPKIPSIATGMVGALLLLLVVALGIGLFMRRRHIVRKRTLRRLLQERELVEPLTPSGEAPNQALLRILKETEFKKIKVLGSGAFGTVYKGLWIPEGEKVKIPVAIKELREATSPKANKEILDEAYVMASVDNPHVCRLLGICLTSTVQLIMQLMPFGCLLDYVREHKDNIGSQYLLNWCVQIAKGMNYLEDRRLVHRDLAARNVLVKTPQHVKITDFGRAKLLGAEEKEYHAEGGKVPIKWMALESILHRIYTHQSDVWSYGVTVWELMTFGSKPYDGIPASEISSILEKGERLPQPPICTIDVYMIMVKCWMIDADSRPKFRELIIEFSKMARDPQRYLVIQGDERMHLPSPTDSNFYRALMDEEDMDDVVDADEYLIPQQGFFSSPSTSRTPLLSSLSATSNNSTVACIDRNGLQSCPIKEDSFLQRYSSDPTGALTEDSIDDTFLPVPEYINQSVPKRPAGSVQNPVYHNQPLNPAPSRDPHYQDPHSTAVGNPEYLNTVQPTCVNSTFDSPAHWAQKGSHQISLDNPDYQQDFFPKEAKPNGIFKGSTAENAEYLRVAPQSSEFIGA
Chain of EGFR (L858R) (P00533 25-1210 L858R): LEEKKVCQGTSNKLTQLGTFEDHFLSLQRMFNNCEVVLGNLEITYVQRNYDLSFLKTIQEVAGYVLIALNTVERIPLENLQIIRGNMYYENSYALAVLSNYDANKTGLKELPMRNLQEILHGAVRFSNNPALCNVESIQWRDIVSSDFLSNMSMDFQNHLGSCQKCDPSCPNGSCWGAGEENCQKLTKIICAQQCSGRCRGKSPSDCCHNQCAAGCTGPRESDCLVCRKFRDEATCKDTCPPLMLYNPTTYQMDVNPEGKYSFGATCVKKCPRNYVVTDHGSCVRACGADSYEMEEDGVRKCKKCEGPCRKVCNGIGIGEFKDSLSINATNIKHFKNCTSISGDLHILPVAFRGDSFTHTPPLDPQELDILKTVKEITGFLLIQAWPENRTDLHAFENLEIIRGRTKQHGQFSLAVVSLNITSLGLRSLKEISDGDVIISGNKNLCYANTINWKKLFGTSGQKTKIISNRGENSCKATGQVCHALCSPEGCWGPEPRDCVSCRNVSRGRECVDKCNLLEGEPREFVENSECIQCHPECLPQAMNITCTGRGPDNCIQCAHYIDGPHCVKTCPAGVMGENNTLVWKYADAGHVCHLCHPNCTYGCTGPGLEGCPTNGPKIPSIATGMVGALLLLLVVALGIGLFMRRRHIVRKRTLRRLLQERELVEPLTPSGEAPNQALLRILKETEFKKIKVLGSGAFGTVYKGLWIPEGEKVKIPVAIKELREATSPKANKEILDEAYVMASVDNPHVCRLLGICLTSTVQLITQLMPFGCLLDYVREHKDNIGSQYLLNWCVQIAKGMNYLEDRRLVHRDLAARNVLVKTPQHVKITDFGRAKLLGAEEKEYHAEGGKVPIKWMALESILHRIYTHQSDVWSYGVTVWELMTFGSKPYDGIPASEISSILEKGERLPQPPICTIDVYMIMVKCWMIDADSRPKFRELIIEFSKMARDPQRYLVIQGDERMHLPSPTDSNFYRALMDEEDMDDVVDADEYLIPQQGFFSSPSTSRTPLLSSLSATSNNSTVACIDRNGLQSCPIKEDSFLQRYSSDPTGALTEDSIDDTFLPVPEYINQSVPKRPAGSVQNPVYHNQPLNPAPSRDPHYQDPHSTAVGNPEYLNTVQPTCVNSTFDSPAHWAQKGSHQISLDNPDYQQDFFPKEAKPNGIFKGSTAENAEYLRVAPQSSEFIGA
Chain of BTK (Q06187 whole entry): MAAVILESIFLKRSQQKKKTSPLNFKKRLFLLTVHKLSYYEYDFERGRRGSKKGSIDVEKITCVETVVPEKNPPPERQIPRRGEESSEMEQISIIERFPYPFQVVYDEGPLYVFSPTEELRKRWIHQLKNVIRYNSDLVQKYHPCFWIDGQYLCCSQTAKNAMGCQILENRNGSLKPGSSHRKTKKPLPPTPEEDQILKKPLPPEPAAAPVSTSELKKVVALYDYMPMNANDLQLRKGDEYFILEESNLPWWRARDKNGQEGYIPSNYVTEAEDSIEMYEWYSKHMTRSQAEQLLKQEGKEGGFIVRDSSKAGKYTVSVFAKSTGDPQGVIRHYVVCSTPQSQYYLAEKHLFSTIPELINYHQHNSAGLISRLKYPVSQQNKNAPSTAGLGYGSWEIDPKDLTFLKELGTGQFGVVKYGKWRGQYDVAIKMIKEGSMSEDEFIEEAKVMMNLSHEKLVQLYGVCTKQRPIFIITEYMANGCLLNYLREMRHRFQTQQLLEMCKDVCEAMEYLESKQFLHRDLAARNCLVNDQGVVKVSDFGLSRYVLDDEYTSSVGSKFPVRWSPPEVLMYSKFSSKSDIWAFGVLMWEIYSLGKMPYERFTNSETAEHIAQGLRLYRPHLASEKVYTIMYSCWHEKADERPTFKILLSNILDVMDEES

For the compound `C=CC(=O)N1CCC[C@@H](n2nc(-c3ccc(Oc4ccccc4)cc3)c3c(N)ncnc32)C1` [Ibrutinib, reference compound], the IC50 in experiment [1] is over 2000 nM.

As for `C=CC(=O)N1CCC[C@@H](n2nc(-c3ccc(Oc4ccccc4)c(Cl)c3)c3c(N)ncnc32)C1` [Compound 18, (R)-1-(3-(4-amino-3-(3-chloro-4-phenoxyphenyl)-1H-pyrazolo[3,4-d]pyrimidin-1-yl)piperidin-1-yl)prop-2-en-1-one], in experiment [1], inhibition was half-maximal at 494 nM (IC50). For the same compound, the Kd on EGFR (L858R,T790M) is 9.3 nM; on BTK, under 10 nM; at EGFR (L858R), 6.3 nM.

`C=CC(=O)N1CCC[C@@H](n2nc(-c3ccc(Oc4ccc(F)cc4)cc3)c3c(N)ncnc32)C1` [Compound 17, (R)-1-(3-(4-amino-3-(4-(4-fluorophenoxy)phenyl)-1H-pyrazolo[3,4-d]pyrimidin-1-yl)piperidin-1-yl)prop-2-en-1-one]: the values for the Kd at EGFR (L858R,T790M), on BTK and on EGFR (L858R) were 270 nM, under 10 nM and 54 nM, respectively.
